Data taken from patent US7531537B2, “Benzofuran derivative” (Mitsubishi Tanabe Pharma Corporation, priority 2002, dated 2009).

Key:
[1] = molecular target: activated blood coagulation factor X (FXa) (Homo sapiens, UniProt P00742); assay: FXa inhibitory effect; type: biochemical
distribution volume = settings: in vivo

activated blood coagulation factor X (FXa), sequence (P00742 235-488 limits assumed): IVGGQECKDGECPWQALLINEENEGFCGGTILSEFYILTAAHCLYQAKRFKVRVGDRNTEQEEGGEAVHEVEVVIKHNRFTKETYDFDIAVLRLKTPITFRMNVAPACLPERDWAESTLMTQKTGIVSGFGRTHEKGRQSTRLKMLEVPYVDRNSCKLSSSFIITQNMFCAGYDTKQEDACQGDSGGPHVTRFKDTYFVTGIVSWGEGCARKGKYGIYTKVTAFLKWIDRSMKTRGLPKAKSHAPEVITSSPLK
activated blood coagulation factor X (FXa), sequence (P00742 41-179 partner limits assumed): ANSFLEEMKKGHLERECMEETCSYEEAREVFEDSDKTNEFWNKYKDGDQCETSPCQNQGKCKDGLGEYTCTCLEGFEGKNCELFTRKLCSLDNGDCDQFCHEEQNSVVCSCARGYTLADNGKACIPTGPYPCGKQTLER

CN(C)C(=O)c1ccc2oc(C(=O)Nc3ccc(Cl)cn3)c(NC(=O)[C@H]3CC[C@H](N(C)C=O)CC3)c2c1 [trans-5-dimethylaminocarbonyl-3-[4-(N-formyl-N-methylamino)-cyclohexylcarbonylamino]-N-(5-chloropyridin-2-yl)-benzofuran-2-carboxamide]
IC50 [1]: < 100 nM
distribution volume (distribution volume): 0.8 L/kg
